Reference: paper PMC10221159, “Investigation of N-Acetyltransferase 2-Mediated Drug Interactions of Amifampridine: In Vitro and In Vivo Evidence of Drug Interactions with Acetaminophen” (Pharmaceutics, 2023)
Where “and” joins values, the source holds several entries; their conditions need not be identical. Identical values can stand only once. Like-named read-outs stand apart in the source and are kept apart here.

What was measured:
[1] = molecular target: T1, NAT2 (Homo sapiens, UniProt P11245); experiment: Inhibition of amifampridine acetylation to 3-N-acetylamifampridine by NAT2 inhibitors, human liver S9 fraction; format: biochemical; details: amifampridine 50 μM, 15 min
T1 construct: in vitro using S9 fractions obtained from human, rat, and mouse livers; from tissue; host or cells: human liver S9 fraction
T1 sequence (P11245 1-290): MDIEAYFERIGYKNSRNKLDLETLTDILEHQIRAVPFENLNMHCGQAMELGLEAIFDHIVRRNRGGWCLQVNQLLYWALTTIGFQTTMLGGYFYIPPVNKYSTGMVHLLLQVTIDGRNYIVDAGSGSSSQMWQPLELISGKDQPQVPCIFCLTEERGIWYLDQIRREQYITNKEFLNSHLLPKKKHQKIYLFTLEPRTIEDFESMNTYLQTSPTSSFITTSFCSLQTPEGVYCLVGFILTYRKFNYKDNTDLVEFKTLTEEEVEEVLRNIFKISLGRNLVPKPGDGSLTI

[2] = molecular target: T2, NAT2 (Rattus norvegicus, UniProt P50298); experiment: Inhibition of amifampridine acetylation to 3-N-acetylamifampridine by NAT2 inhibitors, rat liver S9 fraction; format: biochemical; details: rat vs human liver S9 fractions
T2 sequence (P50298 1-290): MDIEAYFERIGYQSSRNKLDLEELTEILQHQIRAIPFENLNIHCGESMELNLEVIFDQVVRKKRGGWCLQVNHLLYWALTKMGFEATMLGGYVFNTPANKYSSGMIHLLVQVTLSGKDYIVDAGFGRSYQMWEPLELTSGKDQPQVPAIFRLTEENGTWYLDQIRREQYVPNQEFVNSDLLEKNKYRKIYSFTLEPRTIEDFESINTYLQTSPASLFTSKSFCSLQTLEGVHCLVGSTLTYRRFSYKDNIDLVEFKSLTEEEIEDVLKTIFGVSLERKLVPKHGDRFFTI
Method: To determine the half maximal inhibitory concentration (IC50) value of NAT2 inhibitors (acetaminophen, apocynin, and cimetidine) on the metabolism of amifampridine to 3-N-acetylamifampridine, the reaction mixture consisted of a liver S9 fraction (2 mg/mL protein) and 2 mM acetyl-CoA in potassium phosphate buffer was pre-incubated for 5 min in a thermomixer at 37 °C. Then, the NAT2 inhibitors (final concentrations of 0, 1, 5, 10, 50, 100, 500, 1000, and 5000 μM) and amifampridine (final concentration of 50 μM) were added to the reaction mixture and incubated for 15 min at 37 °C. An amount of 50 μL of the mixture was then transferred into the tube and mixed with 100 μL of IS (5 ng/mL ondansetron in acetonitrile). The mixture was vortexed and centrifuged at 14,000 rpm for 15 min at 4 °C. The supernatant was transferred into vials for HPLC-MS/MS analysis and the concentration of 3-N-acetylamifampridine was determined.

[3] = molecular target: T2, NAT2; experiment: Reversible inhibition mode of acetaminophen on amifampridine metabolism, rat liver S9 fraction (Lineweaver–Burk, secondary plots); format: biochemical
Method: To determine the inhibition mechanism of amifampridine metabolism by acetaminophen, various concentrations of amifampridine (40, 80, 160, and 320 μM) were incubated with the rat liver S9 fraction in the presence of different concentrations of acetaminophen (0, 10, 50, 100, and 500 μM). After pre-incubating the reaction mixture containing 2 mM acetyl-CoA for 5 min in a thermomixer at 37 °C, acetaminophen and amifampridine were added and further incubated for 15 min at 37 °C. The samples were diluted five-fold using potassium phosphate buffer, then 50 μL of the diluted samples was transferred into the tube containing 100 μL of IS (5 ng/mL ondansetron in acetonitrile). The mixture was vortexed and centrifuged at 14,000 rpm for 15 min at 4 °C. The supernatant was transferred into vials for HPLC-MS/MS analysis and the concentration of 3-N-acetylamifampridine was determined.
The α value is the degree to which the binding of acetaminophen changes the affinity of the enzyme for amifampridine.

[4] = molecular target: T2, NAT2; experiment: Time-dependent inhibition of amifampridine metabolism by acetaminophen, rat liver S9 fraction; format: biochemical
Method: To examine whether acetaminophen could inhibit the metabolic activity of amifampridine in a time-dependent manner, the experiment was conducted by using a high concentration of amifampridine (approximately four-fold Km value) for different pre-incubation times (0, 10, 30, and 60 min) in the presence of different concentrations of acetaminophen (0, 10, 50, 100, and 500 μM). The reaction mixture contained the liver S9 fraction (2 mg/mL protein) and 2 mM acetyl-CoA in potassium phosphate buffer. Then, acetaminophen was added and pre-incubated at different times in a thermomixer at 37 °C. The reaction was then initiated by adding amifampridine (240 μM as a final concentration) and vortex mixing followed by incubation at 37 °C for 15 min. After incubation, the 50 μL aliquot was transferred into a tube containing 200 μL of ice-cold potassium phosphate to dilute it five-fold. […]
Kobs, the observed rate of enzyme loss, was estimated from the negative slopes of the lines using a linear regression analysis of the natural logarithm of metabolite formation as a function of incubation time. The first-order rate constant, Kinact, which represents the maximum rate of enzyme inactivation, was calculated using a nonlinear regression analysis as follows: Kobs=Kinact×I/Ki+I

[5] = In vivo pharmacokinetic interaction study in rats (plasma); set-up: species or system rat; details: male, Sprague-Dawley, rat, plasma, ip, 100 mg/kg, acetaminophen 100 mg/kg intraperitoneally, rats
Method: Male Sprague Dawley (SD) rats (7–8 weeks old, 260–330 g) were purchased from Orient Bio, Inc. (Seongnam, Korea). The rats were housed under a light/dark cycle for 12 h and were left for at least a week before the experiment to adapt to the laboratory environment. Water and food were provided ad libitum. The rats were fasted overnight with free access to water prior to pharmacokinetic studies. The protocols for animal experiments were approved in accordance with the Guidelines for Animal Care and Use of Gachon University (approval no.: GIACUC-R2021006; 13 May 2021).
The rats were anesthetized with a mixture of Rompun and Zoletil by intramuscular injection and received an intraperitoneal injection of vehicle (40:60 PEG400:normal saline; n = 8) or 100 mg/kg acetaminophen (n = 8). After 10 min, 2 mg/kg amifampridine (dissolved in saline) was administered orally. Blood samples were collected at 0, 5, 15, 30, 60, 90, 120, 240, and 360 min and centrifuged at 14,000 rpm for 15 min at 4 °C. For analysis of amifampridine and 3-N-acetylamifampridine, 50 μL of plasma samples was mixed with 100 μL IS solution (5 ng/mL ondansetron in acetonitrile) and the mixture was vortexed followed by centrifugation at 14,000 rpm for 15 min at 4 °C. For the analysis of acetaminophen, 200 μL of IS (tolbutamide 200 ng/mL in methanol) was added to the plasma samples which were diluted 10-fold using the blank plasma and then vortexed for one minute. Further, the samples were centrifuged at 14,000 rpm for 15 min at 4 °C. The supernatants were transferred to LC vials for quantification.
Non-compartment analysis (NCA) was performed to calculate the pharmacokinetic parameters for the in vivo study using WinNonlin (Version 8.3. (Pharsight Corporation, Mountain View, CA, USA)). The area under the plasma concentration–time curve from time 0 to infinity (AUCinf) was calculated by the linear trapezoidal method and standard extrapolation using λ, where λ represents the slope of the terminal phase in a semi-log graph for plasma concentration–time profiles. Renal clearance (CLr) was determined by dividing the accumulated amount of drug excreted in the urine by AUCinf.

[6] = molecular target: T1, NAT2; set-up: method as in PMID 26519524, PMID 9918139; details: sulfamethazine acetylation, cited from earlier work
[7] = set-up: method as in PMID 21074742; details: humans, oral or intravenous administration; cited from earlier work

CC(=O)Nc1ccc(O)cc1 [acetaminophen]
IC50 [1]: 4480 ± 742 µM
stronger inhibitory effect in rats compared to humans (IC50 ratio) [2]: approximately 29 fold
inhibition mode ([3]; Lineweaver–Burk plot, rat liver S9): mixed inhibition
α value ([3]; rat liver S9, mixed inhibition model): 3.48
αKi ([3]; secondary plot (y-intercept), rat liver S9): 238.8 ± 25.6 µM
decrease of metabolic activity of amifampridine ([4]; acetaminophen pre-incubated with rat liver S9): approximately 0.31 % per min
kinact ([4]; pre-incubation 0-60 min, amifampridine 240 μM, rat liver S9): 5.17e-05 s⁻¹
Cmax [5]: 54800 ng/mL and 362 µM
Ki ([6]; human liver cytosol from fast acetylators): 2140 µM
Ki ([6]; human liver cytosol from slow acetylators): 712 µM
Cmax [7]: ≤ 200 µM
